Assay results as given in PMC8391127, “Triterpenoid–PEG Ribbons Targeting Selectivity in Pharmacological Effects” (Biomedicines, 2021).
Where two headings read alike, the source gives them in different places. Marks after values point to notes of the source that are not given here.

Tests used:
[1] = tested on: HIV-1 (laboratory strain NL4-3); assay: microbe, parasite or virus in culture; assay type: cell-based
Experimental: The cell lines were maintained under standard cell culture conditions at 37 °C and 5% CO2 in a humid environment. Cells were subcultured twice or three times a week using the standard trypsinization procedure.

Enterococcus faecalis = assay: Antimicrobial screening, resazurine test; assay type: cell-based; conditions: E. faecalis; for inhibition at 25 µg/mL / inhibition at 50 µg/mL / inhibition at 100 µg/mL: Enterococcus faecalis, read-out: Inhibition of the microorganism; for inhibition at 50 µg/mL: c = 50 µg·mL-1; for inhibition at 100 µg/mL: c = 100 µg·mL-1
Experimental: (§1) The resazurine test was used to evaluate this activity.
(§2) The cell inoculum was made in Mueller–Hinton broth (10 mL). Colonies of cells were inoculated from the solid medium that was cultivated for 24 h under optimum conditions. A part of the inoculum was diluted to get suspension with an optical density 0.6 to 0.9 McF. An aliquot amount (1 mL) was taken and diluted with additional volume of the medium (19 mL). The stored solutions of the tested compounds were made at a concentration c = 200 µg.mL^−1. The stored suspensions of the cells, MHB medium, solutions of the antibiotics specific for the given bacteria (vancomycin for S. aureus and E. faecalis, kanamycin for E. coli and P. aeruginosa, and tetracycline for B. cereus), and the solutions of the compounds were pipetted into the microtitration plates. Subsequently, a concentration sequence of the tested compounds was made (c = 100, 50, and 25 µg.mL^−1). The content of the microtitration plates was cultivated for 24 h under optimum conditions for the given bacteria. A solution of resazurine was made, based on a dilution of its stored solution (c = 0.15 mg.mL^−1; 2 mL) into the MHB medium (18 mL). Then, it was pipetted into the microtitration plates that were cultivated for an additional 1 h. Finally, fluorescence measurement (excitation at 560 nm, emission at 590 nm) was made, and the inhibition of the bacterium was determined.
(§3) 2. Antimicrobial screening tests
(§4) Antimicrobial activity of the target molecular ribbons 8a, 12a, 8b, 12b, 4c, 6c, 6d and 8d, and […]
(§5) aeruginosa, Staphylococcus aureus and Enterococcus faecalis. The resazurine test was used to […]
(§6) ribbons which have been achieved in this investigation.
(§7) Table S1. Antimicrobial activity, inhibition of the microorganism [%]
(§8) Comp. Staphylococcus aureus Comp. Escherichia coli […]
(§9) µg·mL-1 µg·mL-1 µg·mL-1 µg·mL-1 µg·mL-1 µg·mL-1
(§10) Comp. Bacillus cereus Comp. Pseudomonas aeruginosa

Escherichia coli = assay: Antimicrobial screening, resazurine test; assay type: cell-based; conditions: E. coli; for inhibition at 25 µg/mL / inhibition at 50 µg/mL / inhibition at 100 µg/mL: Escherichia coli, read-out: Inhibition of the microorganism; for inhibition at 50 µg/mL: c = 50 µg·mL-1; for inhibition at 100 µg/mL: c = 100 µg·mL-1
Experimental: as §1, §2, §3, §4, §5, §6, §7, §8, §9, §10

Staphylococcus aureus = assay: Antimicrobial screening, resazurine test; assay type: cell-based; conditions: S. aureus; for inhibition at 25 µg/mL / inhibition at 50 µg/mL / inhibition at 100 µg/mL: Staphylococcus aureus, read-out: Inhibition of the microorganism; for inhibition at 50 µg/mL: c = 50 µg·mL-1; for inhibition at 100 µg/mL: c = 100 µg·mL-1
Experimental: as §1, §2, §3, §4, §5, §6, §7, §8, §9, §10

Pseudomonas aeruginosa = assay: Antimicrobial screening, resazurine test; assay type: cell-based; conditions: P. aeruginosa; for inhibition at 25 µg/mL: c = 25 µg·mL-1, read-out: Inhibition of the microorganism; for inhibition at 50 µg/mL: c = 50 µg·mL-1, read-out: Inhibition of the microorganism; for inhibition at 100 µg/mL: c = 100 µg·mL-1, read-out: Inhibition of the microorganism
Experimental: as §1, §2, §3, §4, §5, §6, §7, §8, §9, §10

Bacillus cereus = assay: Antimicrobial screening, resazurine test; assay type: cell-based; conditions: Bacillus cereus, B. cereus, read-out: Inhibition of the microorganism; for inhibition at 25 µg/mL: c = 25 µg·mL-1; for inhibition at 50 µg/mL: c = 50 µg·mL-1; for inhibition at 100 µg/mL: c = 100 µg·mL-1
Experimental: as §1, §2, §3, §4, §5, §6, §7, §8, §9, §10

[2] = Ability to form supramolecular gel; assay type: physicochemical; conditions: 1% w/v in solvent, ultrasound 30 min, heated to boiling, cooled to r.t. 24 h
Experimental: The solutions of the studied compounds 8a, 12a, 8b, 12b, 4c, 6c, 6d, and 8d (1%, w/v) in the appropriate solvent were mixed with ultrasound for 30 min, then heated to the boiling points of the used solvents, and then allowed to cool down to the r.t. for 24 h. An example of the resulting gels that were produced from 8a, 4c, 6c, and 6d is shown in the Supplementary Material, Figure S1.

[3] = Self-assembly by UV-VIS spectrometry in methanol/water mixtures; assay type: physicochemical; conditions: 0-140 h
Experimental: The self-assembly of the selected compounds 8a, 12a, 8b, 12b, 4c, 6c, 6d, and 8d was measured using UV absorption in methanol/water mixtures with a constant concentration of the studied compound for 7 days in one-hour intervals on the first day, and in 24 h intervals all following days. The stock solutions of the studied compounds were prepared at a concentration of 1 mg·mL^−1 in water. Then, a series of methanol/water mixtures were prepared starting from a methanol/water ratio 100/0 down to 0/100 in 20% steps. The stock solutions of the studied compounds (0.15 mL) were added separately to each vial containing methanol/water mixtures (3 mL), and the UV spectra were recorded in the wavelength range of 200–400 nm. […] For the compounds 8a, 12a, 12b and 6d, the details are presented in the Supplementary Material; see Figure S2.
Supramolecular self-assembly was studied on the basis of the UV-VIS spectra of the compounds in several methanol/water mixtures stepwise during the time interval 0-140 h. Here we show compounds 8a, 12a, 12b and 6d as examples, with which the irregularities in the UV-VIS spectra were either well pronounced (8a and 12a; Figure S2), or no substantial irregularity was detected (12b and 6d).
Figure S2. UV-VIS spectra of 8a (top) and 12a (bottom) measured in the interval 0-140 h.
During that time interval a new maximum appeared at 300 nm wavelength, and the shape of the curves is different than in any of the other intervals of measurement. […]

[4] = Cytotoxicity screening test; assay type: cell-based; conditions: human
From the text: (§11) Description of the experimental procedure used in the cytotoxicity screening test was already published. The following cancer cell lines were used in the investigation: T-lymphoblastic leukemia, CEM; breast carcinoma, MCF7; cervical carcinoma, HeLa; and malignant melanoma, G-361. Human foreskin fibroblasts, BJ, were used as reference cells. All of the above cell lines were obtained from the American Type Culture Collection (Manassas, VA, USA). African green monkey kidney Vero cells were obtained from the European Collection of Cell Cultures (Salisbury, UK) and human T-cell leukemia MT-4 cells were obtained through the NIH AIDS Reagent Program, Division of AIDS, NIAID, NIH, from Dr. Douglas Richman. All cells, but MT-4 cells, were cultured in DMEM (Dulbecco’s Modified Eagle Medium, Sigma, St. Louis, MO, USA). MT-4 cells were maintained in RPMI1640 medium. Media used were supplemented with 10% fetal bovine serum, 2 mM L-glutamine, and 1% penicillin–streptomycin (all Sigma, St. Louis, MO, USA). The cell lines were maintained under standard cell culture conditions at 37 °C and 5% CO2 in a humid environment. Cells were subcultured twice or three times a week using the standard trypsinization procedure.

[5] = Cytotoxicity screening test, reference cells; assay type: cell-based; conditions: BJ foreskin fibroblasts; BJ human fibroblasts
From the text: as §11

Row | Compound | inhibition at 25 µg/mL (Enterococcus faecalis; c = 25 µg·mL-1) | inhibition at 50 µg/mL (Enterococcus faecalis) | inhibition at 100 µg/mL (Enterococcus faecalis) | inhibition at 25 µg/mL (Escherichia coli; c = 25 µg·mL-1) | inhibition at 50 µg/mL (Escherichia coli) | inhibition at 100 µg/mL (Escherichia coli) | inhibition at 25 µg/mL (Staphylococcus aureus; c = 25 µg·mL-1) | inhibition at 50 µg/mL (Staphylococcus aureus) | inhibition at 100 µg/mL (Staphylococcus aureus) | inhibition at 25 µg/mL (Pseudomonas aeruginosa) | inhibition at 50 µg/mL (Pseudomonas aeruginosa) | inhibition at 100 µg/mL (Pseudomonas aeruginosa) | inhibition at 25 µg/mL (Bacillus cereus) | inhibition at 50 µg/mL (Bacillus cereus) | inhibition at 100 µg/mL (Bacillus cereus) | Gel formation [2] | Irregularity in UV-VIS spectra (self-assembly) [3] | other results
1 | CC(C)OC(=O)[C@H](C)N[P@](=O)(CO[C@H](C)Cn1cnc2c(N)ncnc21)Oc1ccccc1 [tenofovir alafenamide, Tenofovir alafenamide, reference compound] | – | – | – | – | – | – | – | – | – | – | – | – | – | – | – | – | – | EC50 ([1]; Human immunodeficiency virus 1, NL43, MT4, read-out: EC50 ± SE against HIV-1): 0.0097 ± 0.0023 µM
2 | CC1(C)C=C2[C@H]3CC[C@@H]4[C@@]5(C)CCC(=O)C(C)(C)[C@@H]5CC[C@@]4(C)[C@]3(C)CC[C@@]2(C(=O)NCCOCCOCCOCCn2cc(COC(=O)[C@]34CCC(C)(C)C=C3[C@H]3CC[C@@H]5[C@@]6(C)CCC(=O)C(C)(C)[C@@H]6CC[C@@]5(C)[C@]3(C)CC4)nn2)CC1 [4c] | > 62% | 50 ± 7.5% | 43 ± 6.5% | 25 ± 3.8% | 34 ± 5.1% | 31 ± 4.7% | 11 ± 1.7% | 66 ± 9.9% | 76 ± 11.4% | 50 ± 7.5% | 47 ± 7% | 46 ± 6.8% | 2 ± 0.3% | 0 to 1% | 6 ± 9% | produced a gel in glycerol | – | Inhibition of the microorganism (Enterococcus faecalis; c = 25 µg·mL-1): 62 ± 9.3 ^e %
3 | CC1(C)CC[C@]2(C(=O)O)CC[C@]3(C)C(=CC[C@@H]4[C@@]5(C)CC[C@H](OCc6cn(CCOCCOCCOCCNC(=O)[C@]78CCC(C)(C)CC7C7=CC[C@@H]9[C@@]%10(C)CC[C@H](O)C(C)(C)[C@@H]%10CC[C@@]9(C)[C@]7(C)CC8)nn6)C(C)(C)[C@@H]5CC[C@]43C)C2C1 (stereo partly shown) [8a] | 17 ± 2.6% | 28 ± 4.2% | 32 ± 4.8% | > 50% | 24 ± 3.6% | 0 to 1% | > 50% | 55 ± 8.3% | 68 ± 10.2% | 21 ± 3.2% | 17 ± 2.6% | 14 ± 2.1% | 0 to 1% | 0 to 1% | 0 to 1% | produced a gel in ethylene glycol | Irregularity was detected | Inhibition of the microorganism (Escherichia coli; c = 25 µg·mL-1): 51 ± 7.7 ^e %; Inhibition of the microorganism (Staphylococcus aureus; c = 25 µg·mL-1): 52 ± 7.8 ^e %; EC50 ([1]; Human immunodeficiency virus 1, NL43, MT4, HIV-1 NL4-3 in MT-4 cells, read-out: EC50 ± SE against HIV-1): 50.6 ± 7.8 µM
4 | CC1(C)C=C2C3CC[C@@H]4[C@@]5(C)CC[C@H](OCc6cn(CCOCCOCCOCCNC(=O)[C@]78CCC(C)(C)C=C7[C@H]7CC[C@@H]9[C@@]%10(C)CCC(=O)C(C)(C)[C@@H]%10CC[C@@]9(C)[C@]7(C)CC8)nn6)C(C)(C)[C@@H]5CC[C@@]4(C)[C@]3(C)CC[C@@]2(C(=O)O)CC1 (stereo partly shown) [6d] | 2 ± 0.3% | 14 ± 2.1% | 28 ± 4.2% | 9 ± 1.4% | 13 ± 2% | 0 to 1% | 25 ± 3.8% | 31 ± 4.7% | 0 to 1% | 0 to 1% | 0 to 1% | 0 to 1% | 1 ± 0.2% | 0 to 1% | 3 ± 0.5% | produced a gel in glycerol | No substantial irregularity was detected | IC50 ([4]; CEM T-lymphoblastic leukemia cells): > 50 µM; IC50 ([4]; G-361 malignant melanoma cells): 20 ± 0.6 µM; IC50 ([4]; HeLa cervical carcinoma cells): > 50 µM; IC50 ([4]; MCF7 breast carcinoma cells): > 50 µM; IC50 [5]: > 50 µM
5 | CC1(C)C=C2[C@H]3CC[C@@H]4[C@@]5(C)CCC(=O)C(C)(C)[C@@H]5CC[C@@]4(C)[C@]3(C)CC[C@@]2(C(=O)NCCOCCOCCOCCn2cc(CO[C@H]3CC[C@]4(C)[C@H]5CC=C6C7CC(C)(C)CC[C@]7(C(=O)O)CC[C@@]6(C)[C@]5(C)CC[C@H]4C3(C)C)nn2)CC1 (stereo partly shown) [6c] | 0 to 1% | 25 ± 3.8% | 36 ± 5.4% | 10 ± 1.5% | 18 ± 2.7% | 30 ± 4.5% | 13 ± 2% | 51 ± 7.7% | 27 ± 4% | 12 ± 1.8% | 69 ± 10.4% | 60 ± 9% | 7 ± 1% | 19 ± 2.9% | 13 ± 2% | produced a gel in glycerol | – | –
